The target in assay [1] is T1, tankyrase 2 (TNKS 2) (Homo sapiens, UniProt Q9H2K2).
T1 construct: 613-1, 116aa; made in house; host or cells: cell-free protein synthesis system
Kind of assay: Tankyrase inhibitory activity test (ELISA, self-polyADP ribosylation), tankyrase 2. The following applies: self-polyADP ribosylation. It counts as biochemical. The essentials:
(§1)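 IC50 was fitted to residual self-polyADP-ribosylation activity, detected by HRP-streptavidin chemiluminescence. Plate-bound Flag fusions (TNKS1 1,024-1,327aa SAM+PARP; TNKS2 613-1,116aa ANK5+SAM+PARP, cell-free synthesized) saw compound for 10 min at room temperature in 50 mM Tris-HCl pH 8.0, 4 mM MgCl2, 0.2 mM DTT. Reaction with 225 μM NAD/25 μM 6-biotin-17-NAD solution ran 45 min at 30 °C.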
In general terms: An ELISA detects its analyte on a solid surface through an enzyme-linked reagent.

Assay [2] deals with human colorectal cancer cell line, COLO-320DM. Kind of assay: Cell proliferation inhibitory activity test (Celltiter-Glo Luminescent Cell Viability Assay). In kind it is cell-based. The following applies: COLO-320DM cells, 96 hours. Put shortly:
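GI50 is taken as the concentration halving cell growth versus 1% DMSO control, measured by ATP luminescence. Compound exposure lasted 96 h at 37° C. under 5% CO2, after overnight seeding in RPMI-1640 with 10% FBS and 2 mM glutamine.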
On the technique in general: Cellular ATP, detected with luciferase, serves as a proxy for viable cell number.

Assay [3] addresses T2, tankyrase 1 (TNKS 1) (Homo sapiens, UniProt O95271).
T2 construct: 1,024-1,327aa; made in house; host or cells: cell-free protein synthesis system
Kind of assay: Tankyrase inhibitory activity test (ELISA, self-polyADP ribosylation), tankyrase 1. The following applies: self-polyADP ribosylation. In kind it is biochemical. Put shortly: as §1

Setting [4] is: tankyrase 2, ELISA, read-out: TNKS2 inhibitory activity (IC50 class).
Where [5] appears, read: read-out: COLO-320 DM cell proliferation inhibitory activity (GI50 class).
Where [6] appears, read: tankyrase 1, ELISA, read-out: TNKS1 inhibitory activity (IC50 class).
Where [7] appears, read: ELISA, class symbols, read-out: TNKS2 (inhibitory activity against tankyrase 2, IC50 value).
The mark [8] stands for this setting: class symbols, read-out: COLO-320 DM (cell proliferation inhibitory activity, GI50 value).
Setting [9] is: ELISA, class symbols, read-out: TNKS1 (inhibitory activity against tankyrase 1, IC50 value).

Like-named read-outs stand apart in the source and are kept apart here.

The text below walks through data of US11414429B2, “Compound or pharmaceutically acceptable salt thereof” (RIKEN, priority 2016, dated 2022).

T2 sequence (O95271 1024-1327): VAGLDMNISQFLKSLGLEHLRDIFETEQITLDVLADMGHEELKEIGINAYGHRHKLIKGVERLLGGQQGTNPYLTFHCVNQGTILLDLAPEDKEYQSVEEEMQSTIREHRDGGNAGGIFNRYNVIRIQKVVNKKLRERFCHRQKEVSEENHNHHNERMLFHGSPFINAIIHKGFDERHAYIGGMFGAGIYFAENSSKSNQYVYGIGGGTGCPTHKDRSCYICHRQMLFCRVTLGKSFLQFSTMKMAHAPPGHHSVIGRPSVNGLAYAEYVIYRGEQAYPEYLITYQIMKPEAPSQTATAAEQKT
T1 sequence (Q9H2K2 613-1166): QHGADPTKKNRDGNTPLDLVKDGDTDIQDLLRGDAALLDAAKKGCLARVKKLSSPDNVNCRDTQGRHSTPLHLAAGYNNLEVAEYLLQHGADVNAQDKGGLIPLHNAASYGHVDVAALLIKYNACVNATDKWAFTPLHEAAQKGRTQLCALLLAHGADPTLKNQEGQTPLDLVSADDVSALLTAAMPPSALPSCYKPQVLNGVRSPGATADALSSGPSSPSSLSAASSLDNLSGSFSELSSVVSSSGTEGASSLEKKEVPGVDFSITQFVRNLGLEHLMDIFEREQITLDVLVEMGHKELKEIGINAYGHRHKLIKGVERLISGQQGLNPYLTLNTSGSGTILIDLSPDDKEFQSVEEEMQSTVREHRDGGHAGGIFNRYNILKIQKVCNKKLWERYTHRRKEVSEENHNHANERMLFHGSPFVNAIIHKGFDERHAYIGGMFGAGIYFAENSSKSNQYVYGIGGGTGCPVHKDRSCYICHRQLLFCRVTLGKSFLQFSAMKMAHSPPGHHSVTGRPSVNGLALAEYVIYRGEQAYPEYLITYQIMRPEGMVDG

For the compound `O=c1[nH]c(N2CCC3(CC2)CN(Cc2cccc(F)c2)c2cc(F)cc(F)c23)nc2c1CCCC2` [Example 342, 2-[4,6-difluoro-1-(3-fluorobenzyl)spiro [indoline-3,4′-piperidin]-1′-yl]-5,6,7,8-tetrahy-droquinazolin-4(3H)-one], the IC50 in assay [1] (setting [4]) is under 0.02 µM; in assay [3] (setting [6]) it was 0.02 to 0.2 µM. Further, in assay [2] (setting [5]), the GI50 was in the range of 0.6 to 1 µM.

As for `O=c1[nH]c(N2CCC3(CC2)CN(Cc2ccc(Cl)nc2)c2cc(F)cc(F)c23)nc2c1CCCC2` [Example 344, 2-{1-[(6-chloropyridin-3-yl)methyl]-4,6-di-fluorospiro[indoline-3,4′-piperidin]-1′-yl]-5,6,7,8-tetrahydroquin-azolin-4(3H)-one], the IC50 in assay [1] (setting [4]) and in assay [3] (setting [6]) was under 0.02 µM in each case. Moreover, in assay [2] (setting [5]), the GI50 is 0.1 to 0.6 µM.

For the compound `COc1cc(F)c2c(c1)N(CC#N)C(=O)C21CCN(c2nc3c(c(=O)[nH]2)CCCN3C)CC1` [Example 379, 2-[4-fluoro-6-methoxy-1′-(8-methyl-4-oxo-3,4,5,6,7,8-hexahydropyrido [2,3-d]pyrimidin-2-yl)-2-oxospiro [indoline-3,4′-piperidin]-1-yl] acetonitrile], the IC50 in assay [1] (setting [4]) and in assay [3] (setting [6]) was under 0.02 µM in each case. Also, the GI50 in assay [2] (setting [5]) was under 0.1 µM.

Consider `CN(C)CCOc1cc(F)c2c(c1)N(C)C(=O)C21CCN(c2nc3c(c(=O)[nH]2)CCCN3C)CC1` [Example 357, 6-[2-(dimethylamino)ethoxy]-4-fluoro-1-methyl-1′-(8-methyl-4-oxo-3,4,5,6,7,8-hexa-hydropyrido [2,3-d]pyrimidin-2-yl) spiro[indoline-3,4′-piperidin]-2-one], for which the IC50 in assay [1] (setting [4]) and in assay [3] (setting [6]) was under 0.02 µM each time. In addition, the GI50 in assay [2] (setting [5]) was in the range of 0.6 to 1 µM.

On to `CN1CCCc2c1nc(N1CCC3(CC1)C(=O)N(C)c1cc(N4CCN(S(C)(=O)=O)CC4)cc(F)c13)[nH]c2=O` [Example 461, 4-fluoro-1-methyl-1′-(8-methyl-4-oxo-3,4,5,6,7,8-hexahydropyrido[2,3-d]pyrimidin-2-yl)-6-(4-methylsulfonylpiperazin-1-yl)spiro[indole-3,4′-piperidine]-2(1H)-one], for which the IC50 in assay [1] (setting [7]) and in assay [3] (setting [9]) was under 0.02 µM throughout. Besides, the GI50 in assay [2] (setting [8]) is under 0.1 µM.

Take `CN1CCCc2c1nc(N1CCC3(CC1)C(=O)N(C)c1cc(OCCN4CCCCC4)cc(Cl)c13)[nH]c2=O` [Example 376, 4-chloro-1-methyl-1′-(8-methyl-4-oxo-3,4,5,6,7,8-hexahydropy-rido[2,3-d]pyrimidin-2-yl)-6-(2-(piperidin-1-yl)ethoxy)spiro [indoline-3,4′-piperidin]-2-one]: the IC50 in assay [1] (setting [4]) and in assay [3] (setting [6]) was under 0.02 µM in each case. Further, the GI50 in assay [2] (setting [5]) lay within 0.1 to 0.6 µM.

Take `CN1CCN(CCOc2cc(F)c3c(c2)N(C)C(=O)C32CCN(c3nc4c(c(=O)[nH]3)CCCN4C)CC2)CC1` [Example 362, 4-fluoro-1-methyl-1′-(8-methyl-4-oxo-3,4,5,6,7,8-hexahydropy-rido[2,3-d]pyrimidin-2-yl)-6-[2-(4-methyl-piperazin-1-yl)ethoxy] spiro[indoline-3,4′-piperidin]-2-one]: the IC50 in assay [1] (setting [4]) and in assay [3] (setting [6]) was under 0.02 µM throughout. The GI50 in assay [2] (setting [5]) was 0.1 to 0.6 µM.

As to `COCCOc1cc(F)c2c(c1)N(C)C(=O)C21CCN(c2nc3c(c(=O)[nH]2)CCCN3C)CC1` [Example 366, 4-fluoro-6-(2-methoxy)-1-methyl-1′-(8-methyl-4-oxo-3,4,5,6,7,8-hexahydropy-rido[2,3-d]pyrimidin-2-yl)spiro [indoline-3,4′-piperidin]-2-one], the IC50 in assay [1] (setting [4]) and in assay [3] (setting [6]) was under 0.02 µM in each case. In assay [2] (setting [5]), the GI50 was in the range of 0.1 to 0.6 µM.

Consider `CN1CCCc2c1nc(N1CCC3(CC1)C(=O)N(C)c1cc(OCc4nnn[nH]4)cc(F)c13)[nH]c2=O` [Example 393, 6-[(1H-tetrazol-5-yl)methoxy]-4-fluoro-1-methyl-1′-(8-methyl-4-oxo-3,4,5,6,7,8-hexahydropyrido [2,3-d]pyrimidin-2-yl)spiro [indoline-3,4′-piperidin]-2(1H)-one], for which the IC50 in assay [1] (setting [7]) and in assay [3] (setting [9]) was under 0.02 µM in each case. For the same compound, in assay [2] (setting [8]), the GI50 lay in the range of 0.1 to 0.6 µM.

As to `CN1CCC(COc2ccc(F)c3c2N(C)C(=O)C32CCN(c3nc4c(c(=O)[nH]3)CCCN4C)CC2)CC1` [Example 413], the IC50 in assay [1] (setting [7]) is under 0.02 µM; in assay [3] (setting [9]), 0.02 to 0.2 µM. The GI50 in assay [2] (setting [8]) lay in the range of 0.6 to 1 µM.

For `N#CCOc1cc(F)c2c(c1)N(CC(F)(F)F)C(=O)C21CCN(c2nc3c(c(=O)[nH]2)CCCN3)CC1` [Example 435, 2-[4-fluoro-2-oxo-1′-(4-oxo-3,4,5,6,7-hex-ahydropyrido[2,3-d]pyrimidin-2-yl)-1-(2,2,2-trifluoroethyl)spiro [indole-3,4′-piperidine]-6-yl]oxyacetonitrile], the IC50 in assay [1] (setting [7]) and in assay [3] (setting [9]) was under 0.02 µM throughout. For the same compound, in assay [2] (setting [8]), the GI50 was 0.1 to 0.6 µM.

For `COC(=O)N1CCN(c2cc(F)c3c(c2)N(C)C(=O)C32CCN(c3nc4c(c(=O)[nH]3)CCCN4C)CC2)CC1` [Example 462, methyl 4-[4-fluoro-1-methyl-1′-(8-methyl-4-oxo-3,4,5,6,7,8-hexahydropyrido[2,3-d]pyrimidin-2-yl)-2-oxospiro[indole-3,4′-piperidine]-6-yl]piperazine-1-carboxylate], the IC50 in assay [1] (setting [7]) was under 0.02 µM; in assay [3] (setting [9]), 0.02 to 0.2 µM. The GI50 in assay [2] (setting [8]) is under 0.1 µM.

In the case of `O=C1N(Cc2cccnc2)c2cc(F)cc(F)c2C12CCN(c1nc3c(CO)cccc3c(=O)[nH]1)CC2` [Example 273, 4,6-difluoro-1′-[8-(hydroxymethyl)-4-oxo-3,4-dihydro-quinazolin-2-yl]-1-(pyridin-3-ylmethyl)-spiro[indoline-3,4′-piperidin]-2-one], the IC50 in assay [1] (setting [4]) and in assay [3] (setting [6]) was under 0.02 µM in each case. In addition, in assay [2] (setting [5]), the GI50 is 0.6 to 1 µM.

In the case of `CN1CCCc2c1nc(N1CCC3(CC1)C(=O)N(CCO)c1cc(OCC#N)cc(F)c13)[nH]c2=O` [Example 429, {[4-fluoro-1-(2-hydroxy-ethyl)-1′-(8-methyl-4-oxo-3,4,5,6,7,8-hexahydro-pyrido[2,3-d]pyrimidin-2-yl)-2-oxospiro[indoline-3,4′-piperidin]-6-yl]oxy} acetonitrile], the IC50 in assay [1] (setting [7]) and in assay [3] (setting [9]) was under 0.02 µM each time. In addition, the GI50 in assay [2] (setting [8]) was in the range of 0.1 to 0.6 µM.

For the compound `COc1ccc(F)c2c1N(CC(C)(C)O)CC21CCN(c2nc3c(c(=O)[nH]2)CCCN3)CC1` [Example 473, 2-(4-fluoro-1-(2-hydroxy-2-methylpropyl)-7-methoxyspiro[indoline-3,4′-piperidin]-1′-yl)-5,6,7,8-tetrahydropyeido[2,3-d]pyrimidin-4(3H)-one], the IC50 in assay [1] (setting [7]) was under 0.02 µM; in assay [3] (setting [9]), 0.02 to 0.2 µM. Also, in assay [2] (setting [8]), the GI50 was in the range of 0.6 to 1 µM.

For `COC1CCN(c2cc(F)c3c(c2)N(C)C(=O)C32CCN(c3nc4c(c(=O)[nH]3)CCCN4C)CC2)CC1` [Example 465, 4-fluoro-6-(4-methoxypiperidin-1-yl)-1-methyl-1′-(8-methyl-4-oxo-3,4,5,6,7,8-hexahydropyrido[2,3-d]pyrimidin-2-yl)spiro[indole-3,4′-piperidine]-2(1H)-one], the IC50 in assay [1] (setting [7]) was under 0.02 µM; in assay [3] (setting [9]), 0.02 to 0.2 µM. For the same compound, in assay [2] (setting [8]), the GI50 is under 0.1 µM.

What is called IC50 is the concentration that inhibits the measured activity by half.
